# Earlier results in publication PMC12557437, “Research towards selective inhibition of the CLK3 kinase” (Beilstein Journal of Organic Chemistry, 2025).
# Key:
# DYRK1B [1] = test system: DYRK1B; design: method as in earlier work; conditions: human protein kinase; ref 17 (SM08502), 19 (T3); cited from earlier work
# CLK3 [2] = conditions: human protein kinase; ref 17 (SM08502), 19 (T3), 20-21 (CX-4945), 24 (DB18); cited from earlier work
# DYRK1A [3] = conditions: human protein kinase; ref 17 (SM08502), 19 (T3), 20-21 (CX-4945), 24 (DB18); cited from earlier work
# DYRK2 [4] = test system: DYRK2; design: method as in PMID 31560935; conditions: human protein kinase; cited from earlier work
# CLK2 [5] = conditions: human protein kinase; ref 17 (SM08502), 19 (T3), 20-21 (CX-4945), 24 (DB18); cited from earlier work
# CLK1 [6] = conditions: human protein kinase; ref 17 (SM08502), 19 (T3), 20-21 (CX-4945), 24 (DB18); cited from earlier work
# CLK4 [7] = conditions: human protein kinase; ref 17 (SM08502), 20-21 (CX-4945), 24 (DB18); cited from earlier work
# Mm_CLK4 = Mm_CLK4 (Mus musculus, UniProt O35493); conditions: data taken from ref 23-24; cited from earlier work
# Rn_DYRK1A = Rn_DYRK1A (Rattus norvegicus, UniProt Q63470); conditions: data taken from ref 23-24; cited from earlier work
# DYRK1A [8] = molecular target: DYRK1A; design: method as in PMID 29769258; conditions: human protein kinase; cited from earlier work
# DYRK1B [9] = molecular target: DYRK1B; design: method as in PMID 29769258; conditions: human protein kinase; cited from earlier work
# DYRK2 [10] = molecular target: DYRK2; design: method as in PMID 29769258; conditions: human protein kinase; cited from earlier work
# CLK2 [11] = molecular target: CLK2; design: method as in PMID 29769258; conditions: human protein kinase; cited from earlier work
# CLK3 [12] = molecular target: CLK3; design: method as in PMID 29769258; conditions: human protein kinase; cited from earlier work
# CLK1 [13] = molecular target: CLK1; design: method as in PMID 29769258; conditions: human protein kinase; cited from earlier work
# CLK4 [14] = molecular target: CLK4; design: method as in PMID 29769258; conditions: human protein kinase; cited from earlier work
# Sequence of Mm_CLK4 (O35493 whole entry): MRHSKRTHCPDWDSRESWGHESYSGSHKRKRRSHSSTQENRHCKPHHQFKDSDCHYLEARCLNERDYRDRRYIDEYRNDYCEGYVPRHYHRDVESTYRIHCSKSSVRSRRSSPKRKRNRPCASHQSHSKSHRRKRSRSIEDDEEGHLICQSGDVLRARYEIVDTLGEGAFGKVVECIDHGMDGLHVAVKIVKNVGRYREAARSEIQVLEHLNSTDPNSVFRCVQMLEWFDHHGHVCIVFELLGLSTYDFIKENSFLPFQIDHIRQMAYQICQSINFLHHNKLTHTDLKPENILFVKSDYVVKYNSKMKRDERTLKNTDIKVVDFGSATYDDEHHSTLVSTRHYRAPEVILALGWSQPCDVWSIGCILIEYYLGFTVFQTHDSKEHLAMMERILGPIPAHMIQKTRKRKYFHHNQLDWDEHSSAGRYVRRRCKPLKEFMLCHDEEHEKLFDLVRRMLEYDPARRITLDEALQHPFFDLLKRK
smiles,measurement,setting,value
CN1CCN(c2cc(C(=O)Nc3cc4cc(-c5cnn(C)c5)ccc4cn3)ccn2)CC1 [SM08502],IC50,DYRK1B [1],[…]
same,IC50,CLK3 [2],22 nM
same,IC50,DYRK1A [3],1 nM
same,IC50,CLK1 [6],8 nM
same,IC50,CLK4 [7],1 nM
CN1CCN(C(=O)C(C)(C)c2ccc(C(=O)Nc3cn4cc(-c5ccncc5)ccc4n3)cc2)CC1 [Compound T3],IC50,DYRK1B [1],230 nM
same,IC50,CLK3 [2],110 nM
same,IC50,DYRK1A [3],260 nM
same,IC50,CLK2 [5],15 nM
same,IC50,CLK1 [6],0.67 nM
Cc1ccc(-n2cc(COc3cccc4cnc(Nc5cccc(Cl)c5)nc34)nn2)c([N+](=O)[O-])c1 [DB18],IC50,Mm_CLK4,20 nM
same,IC50,Rn_DYRK1A,> 100 µM
CNc1nc(NCc2cnccn2)c2c(-c3ccc4ncccc4c3)c[nH]c2n1 [Compound T-025],Kd,DYRK1A [8],0.074 nM
same,Kd,DYRK1B [9],1.5 nM
same,Kd,DYRK2 [10],32 nM
same,Kd,CLK2 [11],0.096 nM
same,Kd,CLK3 [12],6.5 nM
same,Kd,CLK1 [13],4.8 nM
same,Kd,CLK4 [14],0.61 nM
